From patent US20020031795A1, “Nitrocoumarins for detecting all micro-organisms” (priority 1998, published 2002)

Columns and labels:
[1] = system: E. coli (NCTC strain 10418); assay: Fluorescent signal generated by E. coli reducing nitrocoumarins (nitroaryl reductase activity); format: cell-based, Escherichia coli; settings: 0.105 mmol/l; for Extent of reduction of the substrate (in words): end of the four-hour assay
Protocol: (§1) A sample of the 7-nitrocoumarin derivative is dissolved in 4 ml of hot, distilled water. The mass dissolved to make the stock solution is such that the final concentration of the compound in the assay is 0.105 mmol/l. This solution is added to 96 ml of Mueller-Hinton broth and the mixture is sterile-filtered.
(§2) The E. coli was grown for 24 hours at 35° C. on Columbia agar supplemented with sheep blood. The bacteria were then resuspended in sterile, distilled water and their density was adjusted to 0.5 on the MacFarland scale (i.e. about 10^8 cells/ml). This suspension was then diluted 100-fold in sterile Mueller-Hinton broth (i.e. to a final density of about 10^6 cells/ml).
(§3) Fifty microliters of each nitrocoumarin solution plus 50 μl of bacterial suspension were then added to the wells of a microtiter plate. The plates were incubated at 35° C. and the optical density and fluorescence of each well was read every 30 min for a total of 4 hours. Optical density (690 nm) readings were made using an Anthos 2001 spectrophotometer (Labtech International Limited), and fluorescence (excitation at 365 nm and emission at 440 nm) readings were made on a Biolite F1 2001 fluorometer (Labtech International Limited).
(§4) The effect of the concentration of 7-nitrocoumarin-3-carboxylic acid on the sensitivity of the assay to detect E. coli (NCTC strain 10418) was investigated at concentrations of the indicator ranging from 0 to 0.262 mmol/l. All other conditions were identical to those described in section A above.

[2] = system: Escherichia coli (NCTC 10418); assay: Growth of E. coli in Mueller-Hinton broth in the presence of nitrocoumarins (optical density 690 nm); format: cell-based; settings: 0.105 mmol/l
Protocol: as §1, §2, §3, §4

Compound | Fluorescent signal ([1]; 0 min) | Fluorescent signal ([1]; 30 min) | Fluorescent signal ([1]; 60 min) | Fluorescent signal ([1]; 90 min) | Fluorescent signal ([1]; 120 min) | Fluorescent signal ([1]; 150 min) | Fluorescent signal ([1]; 180 min) | Fluorescent signal ([1]; 210 min) | Fluorescent signal ([1]; 240 min) | Optical density (690 nm) ([2]; 0 min) | Optical density (690 nm) ([2]; 30 min) | Optical density (690 nm) ([2]; 60 min) | Optical density (690 nm) ([2]; 90 min) | Optical density (690 nm) ([2]; 120 min) | Optical density (690 nm) ([2]; 150 min) | Optical density (690 nm) ([2]; 180 min) | Optical density (690 nm) ([2]; 210 min) | Optical density (690 nm) ([2]; 240 min) | other results
CC(=O)c1c(C)c2ccc([N+](=O)[O-])cc2oc1=O [3-acetyl-4-methyl-7-nitrocoumarin] | 0 | 40 | 390 | 992 | 1804 | 2811 | 4090 | 5576 | 8017 | 0.000 | −0.003 | −0.002 | −0.001 | 0.002 | 0.008 | 0.023 | 0.051 | 0.110 | 
CCCC(=O)c1cc2ccc([N+](=O)[O-])cc2oc1=O [3-butyryl-7-nitrocoumarin] | 0 | 64 | 387 | 894 | 1538 | 2344 | 3329 | 4642 | 6845 | 0.000 | 0.001 | 0.005 | 0.007 | 0.009 | 0.012 | 0.015 | 0.039 | 0.096 | Extent of reduction of the substrate (in words) [1]: least reduced; Inhibitory effect on the growth of E. coli (in words) [2]: most powerful inhibitors
Cc1cc(=O)oc2cc([N+](=O)[O-])ccc12 [4-methyl-7-nitrocoumarin] | 0 | 15 | 302 | 974 | 2008 | 3299 | 5097 | 7545 | 11125 | 0.000 | 0.000 | 0.002 | 0.004 | 0.010 | 0.024 | 0.055 | 0.113 | 0.175 | 
O=C(c1cc2ccc([N+](=O)[O-])cc2oc1=O)N1CCOCC1 [7-nitrocoumarin-3-carboxymorpholide] | 0 | 180 | 665 | 1376 | 2414 | 3796 | 5817 | 8454 | 12263 | 0.000 | −0.002 | −0.001 | 0.001 | 0.005 | 0.014 | 0.037 | 0.068 | 0.109 | 
O=c1ccc2ccc([N+](=O)[O-])cc2o1 [7-nitrocoumarin] | 0 | 77 | 519 | 1447 | 2915 | 4713 | 7160 | 10182 | 14189 | 0.000 | −0.002 | 0.000 | 0.002 | 0.009 | 0.025 | 0.072 | 0.133 | 0.211 | 
CCOC(=O)c1cc2ccc([N+](=O)[O-])cc2oc1=O [ethyl-7-nitrocoumarin-3-carboxylate] | 0 | 173 | 814 | 1703 | 2813 | 4126 | 5646 | 7370 | 10859 | 0.000 | −0.005 | −0.008 | −0.008 | −0.006 | 0.000 | 0.018 | 0.046 | 0.116 | 
COC(=O)c1cc2ccc([N+](=O)[O-])cc2oc1=O [methyl-7-nitrocoumarin-3-carboxylate] | 0 | 174 | 702 | 1297 | 2035 | 2905 | 3946 | 5005 | 6668 | 0.000 | −0.001 | −0.001 | 0.000 | 0.000 | 0.002 | 0.006 | 0.014 | 0.032 | Extent of reduction of the substrate (in words) [1]: least reduced; Inhibitory effect on the growth of E. coli (in words) [2]: most powerful inhibitors; OD readings reduced compared with the untreated control [2]: 92%
